# In ChEMBL document CHEMBL3885881, “DrugMatrix”:
# Organism: Rattus norvegicus
# Assay: DrugMatrix - Regimen: Daily Repeat
# Assay type: toxicity, organism-based, Sprague-Dawley
# Design: regimen Daily Repeat, gender Male, age 6-8 weeks
# Conditions: in vivo, po, route oral GAVAGE, vehicle .5 % CMC; for ALANINE AMINOTRANSFERASE / ALBUMIN / ALKALINE PHOSPHATASE / ASPARTATE AMINOTRANSFERASE / BLOOD UREA NITROGEN / CHLORIDE / CHOLESTEROL / CREATINE PHOSPHOKINASE / CREATININE / GLUCOSE / LACTATE DEHYDROGENASE / LIPASE / PHOSPHORUS / POTASSIUM / SODIUM / TOTAL BILIRUBIN / TOTAL PROTEIN / URIC ACID: tissue Plasma
# [1] = 0.0007 mg/kg, 2184 h, tissue Blood, dose level Low, time 91 day
# [2] = 0.0007 mg/kg, 2184 h, dose level Low, time 91 day
# [3] = 0.0007 mg/kg, […], tissue Blood, dose level Low, time 28 day
# [4] = 0.0007 mg/kg, […], dose level Low, time 28 day
# [5] = 0.001 mg/kg, 72 h, tissue Blood, dose level M1, time 3 day
# [6] = 0.001 mg/kg, 72 h, dose level M1, time 3 day
# [7] = 0.001 mg/kg, 120 h, tissue Blood, dose level M1, time 5 day
# [8] = 0.001 mg/kg, 120 h, dose level M1, time 5 day
# [9] = 0.02 mg/kg, 72 h, tissue Blood, dose level High, time 3 day
# [10] = 0.02 mg/kg, 72 h, dose level High, time 3 day
# [11] = 0.02 mg/kg, 120 h, tissue Blood, dose level High, time 5 day
# [12] = 0.02 mg/kg, 120 h, dose level High, time 5 day
smiles,measurement,setting,value
"Clc1cc2c(cc1Cl)Oc1cc(Cl)c(Cl)cc1O2 [2,3,7,8-TETRACHLORODIBENZO-P-DIOXIN]",EOSINOPHIL,[1],1.12%
same,ERYTHROCYTE COUNT,[1],9.38 x10E6/uL
same,HEMATOCRIT,[1],50.34%
same,HEMOGLOBIN,[1],16.79 G/DL
same,LEUKOCYTE COUNT,[1],13.03 x10E3/uL
same,LYMPHOCYTE,[1],77.67%
same,MEAN CORPUSCULAR HEMOGLOBIN,[1],17.96 pg
same,MEAN CORPUSCULAR HEMOGLOBIN CONCENTRATION,[1],33.34 G/DL
same,MEAN CORPUSCULAR VOLUME,[1],53.81 fL
same,MONOCYTE,[1],2.14%
same,NEUTROPHIL,[1],16.55%
same,PLATELET COUNT,[1],1320.7 x10E3/uL
same,ALANINE AMINOTRANSFERASE,[2],26.9 u/L
same,ALBUMIN,[2],3.75 G/DL
same,ALKALINE PHOSPHATASE,[2],85.3 u/L
same,ASPARTATE AMINOTRANSFERASE,[2],64.6 u/L
same,BLOOD UREA NITROGEN,[2],14.9 mg/dL
same,CHLORIDE,[2],103.1 MEQ/L
same,CHOLESTEROL,[2],55.9 mg/dL
same,CREATINE PHOSPHOKINASE,[2],76.1 u/L
same,CREATININE,[2],0.51 mg/dL
same,GLUCOSE,[2],150.6 mg/dL
same,LACTATE DEHYDROGENASE,[2],36.1 u/L
same,LIPASE,[2],15.1 u/L
same,PHOSPHORUS,[2],7.88 mg/dL
same,POTASSIUM,[2],6.11 MEQ/L
same,SODIUM,[2],151 MEQ/L
same,TOTAL BILIRUBIN,[2],0.2 mg/dL
same,TOTAL PROTEIN,[2],7.13 G/DL
same,URIC ACID,[2],0.79 mg/dL
same,ABSOLUTE BASOPHIL,[3],72 cells/µL
same,ABSOLUTE EOSINOPHIL,[3],54 cells/µL
same,ABSOLUTE LYMPHOCYTE,[3],9720 cells/µL
same,ABSOLUTE MONOCYTE,[3],220 cells/µL
same,ABSOLUTE SEGMENTED NEUTROPHIL,[3],1340 cells/µL
same,BASOPHIL,[3],0.62%
same,EOSINOPHIL,[3],0.5%
same,ERYTHROCYTE COUNT,[3],8.2 x10E6/uL
same,HEMATOCRIT,[3],46.2%
same,HEMOGLOBIN,[3],15.3 G/DL
same,LEUKOCYTE COUNT,[3],11.47 x10E3/uL
same,LYMPHOCYTE,[3],84.6%
same,MEAN CORPUSCULAR HEMOGLOBIN,[3],18.64 pg
same,MEAN CORPUSCULAR HEMOGLOBIN CONCENTRATION,[3],33.1 G/DL
same,MEAN CORPUSCULAR VOLUME,[3],56.34 fL
same,MONOCYTE,[3],1.94%
same,NEUTROPHIL,[3],11.78%
same,PLATELET COUNT,[3],1311.4 x10E3/uL
same,ALANINE AMINOTRANSFERASE,[4],24.8 u/L
same,ALBUMIN,[4],3.58 G/DL
same,ALKALINE PHOSPHATASE,[4],148 u/L
same,ASPARTATE AMINOTRANSFERASE,[4],65.4 u/L
same,BLOOD UREA NITROGEN,[4],10.6 mg/dL
same,CHLORIDE,[4],104 MEQ/L
same,CHOLESTEROL,[4],54.8 mg/dL
same,CREATINE PHOSPHOKINASE,[4],83.2 u/L
same,CREATININE,[4],0.44 mg/dL
same,GLUCOSE,[4],147.6 mg/dL
same,LACTATE DEHYDROGENASE,[4],39.8 u/L
same,LIPASE,[4],39.2 u/L
same,PHOSPHORUS,[4],9.54 mg/dL
same,POTASSIUM,[4],5.96 MEQ/L
same,SODIUM,[4],151.6 MEQ/L
same,TOTAL BILIRUBIN,[4],0.2 mg/dL
same,TOTAL PROTEIN,[4],6.34 G/DL
same,URIC ACID,[4],0.22 mg/dL
same,BASOPHIL,[5],0.47%
same,EOSINOPHIL,[5],0.5%
same,ERYTHROCYTE COUNT,[5],7.09 x10E6/uL
same,HEMATOCRIT,[5],44.53%
same,HEMOGLOBIN,[5],14.13 G/DL
same,LEUKOCYTE COUNT,[5],11.43 x10E3/uL
same,LYMPHOCYTE,[5],82.93%
same,MEAN CORPUSCULAR HEMOGLOBIN,[5],20 pg
same,MEAN CORPUSCULAR HEMOGLOBIN CONCENTRATION,[5],31.8 G/DL
same,MEAN CORPUSCULAR VOLUME,[5],62.87 fL
same,MONOCYTE,[5],2.37%
same,NEUTROPHIL,[5],12.8%
same,PLATELET COUNT,[5],1540.67 x10E3/uL
same,ALANINE AMINOTRANSFERASE,[6],38.33 u/L
same,ALBUMIN,[6],3.6 G/DL
same,ALKALINE PHOSPHATASE,[6],343.33 u/L
same,ASPARTATE AMINOTRANSFERASE,[6],60 u/L
same,BLOOD UREA NITROGEN,[6],12 mg/dL
same,CHLORIDE,[6],103 MEQ/L
same,CHOLESTEROL,[6],88.33 mg/dL
same,CREATINE PHOSPHOKINASE,[6],181.33 u/L
same,CREATININE,[6],0.4 mg/dL
same,GLUCOSE,[6],183.67 mg/dL
same,PHOSPHORUS,[6],13.1 mg/dL
same,POTASSIUM,[6],6.53 MEQ/L
same,SODIUM,[6],148.33 MEQ/L
same,TOTAL BILIRUBIN,[6],0.33 mg/dL
same,TOTAL PROTEIN,[6],5.93 G/DL
same,BASOPHIL,[7],0.47%
same,EOSINOPHIL,[7],0.23%
same,ERYTHROCYTE COUNT,[7],7.01 x10E6/uL
same,HEMATOCRIT,[7],45.3%
same,HEMOGLOBIN,[7],14.33 G/DL
same,LEUKOCYTE COUNT,[7],13.09 x10E3/uL
same,LYMPHOCYTE,[7],85.1%
same,MEAN CORPUSCULAR HEMOGLOBIN,[7],20.47 pg
same,MEAN CORPUSCULAR HEMOGLOBIN CONCENTRATION,[7],31.6 G/DL
same,MEAN CORPUSCULAR VOLUME,[7],64.6 fL
same,MONOCYTE,[7],2.03%
same,NEUTROPHIL,[7],11.33%
same,PLATELET COUNT,[7],977.33 x10E3/uL
same,ALANINE AMINOTRANSFERASE,[8],39.33 u/L
same,ALBUMIN,[8],3.63 G/DL
same,ALKALINE PHOSPHATASE,[8],300 u/L
same,ASPARTATE AMINOTRANSFERASE,[8],62.33 u/L
same,BLOOD UREA NITROGEN,[8],12.33 mg/dL
same,CHLORIDE,[8],101.67 MEQ/L
same,CHOLESTEROL,[8],84.33 mg/dL
same,CREATINE PHOSPHOKINASE,[8],173.33 u/L
same,CREATININE,[8],0.43 mg/dL
same,GLUCOSE,[8],173.33 mg/dL
same,PHOSPHORUS,[8],12.97 mg/dL
same,POTASSIUM,[8],6.93 MEQ/L
same,SODIUM,[8],149.33 MEQ/L
same,TOTAL BILIRUBIN,[8],0.5 mg/dL
same,TOTAL PROTEIN,[8],6.07 G/DL
same,BASOPHIL,[9],0.37%
same,EOSINOPHIL,[9],0.47%
same,ERYTHROCYTE COUNT,[9],6.77 x10E6/uL
same,HEMATOCRIT,[9],41.33%
same,HEMOGLOBIN,[9],12.93 G/DL
same,LEUKOCYTE COUNT,[9],11.64 x10E3/uL
same,LYMPHOCYTE,[9],80.13%
same,MEAN CORPUSCULAR HEMOGLOBIN,[9],19.13 pg
same,MEAN CORPUSCULAR HEMOGLOBIN CONCENTRATION,[9],31.33 G/DL
same,MEAN CORPUSCULAR VOLUME,[9],61.07 fL
same,MONOCYTE,[9],2.43%
same,NEUTROPHIL,[9],15.43%
same,PLATELET COUNT,[9],1395 x10E3/uL
same,ALANINE AMINOTRANSFERASE,[10],38.67 u/L
same,ALBUMIN,[10],3.43 G/DL
same,ALKALINE PHOSPHATASE,[10],312.67 u/L
same,ASPARTATE AMINOTRANSFERASE,[10],58.67 u/L
same,BLOOD UREA NITROGEN,[10],10.67 mg/dL
same,CHLORIDE,[10],103.33 MEQ/L
same,CHOLESTEROL,[10],75 mg/dL
same,CREATINE PHOSPHOKINASE,[10],168.33 u/L
same,CREATININE,[10],0.3 mg/dL
same,GLUCOSE,[10],187.33 mg/dL
same,PHOSPHORUS,[10],12.63 mg/dL
same,POTASSIUM,[10],7.03 MEQ/L
same,SODIUM,[10],147 MEQ/L
same,TOTAL BILIRUBIN,[10],0.27 mg/dL
same,TOTAL PROTEIN,[10],5.57 G/DL
same,BASOPHIL,[11],0.5%
same,EOSINOPHIL,[11],0.27%
same,ERYTHROCYTE COUNT,[11],7.05 x10E6/uL
same,HEMATOCRIT,[11],43.57%
same,HEMOGLOBIN,[11],13.87 G/DL
same,LEUKOCYTE COUNT,[11],16.09 x10E3/uL
same,LYMPHOCYTE,[11],87.33%
same,MEAN CORPUSCULAR HEMOGLOBIN,[11],19.67 pg
same,MEAN CORPUSCULAR HEMOGLOBIN CONCENTRATION,[11],31.8 G/DL
same,MEAN CORPUSCULAR VOLUME,[11],61.9 fL
same,MONOCYTE,[11],1.77%
same,NEUTROPHIL,[11],8.93%
same,PLATELET COUNT,[11],1151.33 x10E3/uL
same,ALANINE AMINOTRANSFERASE,[12],46 u/L
same,ALBUMIN,[12],3.5 G/DL
same,ALKALINE PHOSPHATASE,[12],413.67 u/L
same,ASPARTATE AMINOTRANSFERASE,[12],68 u/L
same,BLOOD UREA NITROGEN,[12],12 mg/dL
same,CHLORIDE,[12],102.33 MEQ/L
same,CHOLESTEROL,[12],85.67 mg/dL
same,CREATINE PHOSPHOKINASE,[12],209.67 u/L
same,CREATININE,[12],0.4 mg/dL
same,GLUCOSE,[12],184.33 mg/dL
same,PHOSPHORUS,[12],12.77 mg/dL
same,POTASSIUM,[12],6.53 MEQ/L
same,SODIUM,[12],148.67 MEQ/L
same,TOTAL BILIRUBIN,[12],0.4 mg/dL
same,TOTAL PROTEIN,[12],5.8 G/DL
